{"source": "patent US9505798B2", "about": "“Steroid compounds as RORyt modulators and uses thereof” (New York University, priority 2010, dated 2016)", "assay_type_in_all_cases": "cell-based", "key": {"RORα": {"target": "T1, RORα (Mus musculus, UniProt P51448)", "T1 construct": "mouse RORα (amino acids 142 to end); expressed in transfected cells", "T1 sequence (P51448 142-523 limits assumed)": "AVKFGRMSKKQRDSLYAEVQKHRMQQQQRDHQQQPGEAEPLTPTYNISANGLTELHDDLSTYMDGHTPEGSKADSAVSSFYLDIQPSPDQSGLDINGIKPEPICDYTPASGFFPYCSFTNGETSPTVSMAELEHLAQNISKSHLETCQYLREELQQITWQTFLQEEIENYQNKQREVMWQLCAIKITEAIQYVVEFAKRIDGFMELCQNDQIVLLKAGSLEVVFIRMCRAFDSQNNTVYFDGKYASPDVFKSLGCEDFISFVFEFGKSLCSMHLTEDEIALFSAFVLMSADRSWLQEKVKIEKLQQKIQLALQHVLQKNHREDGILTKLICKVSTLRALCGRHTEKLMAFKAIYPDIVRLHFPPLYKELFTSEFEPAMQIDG", "assay": "S2 cell RORα luciferase reporter", "conditions": "10 μM, FIG. 1c", "text": "(§1) The Drosophila S2 cell line was originally purchased from Invitrogen and was maintained in Schneider's medium supplemented with 10% heat-inactivated bovine fetal calf serum and antibiotics (Invitrogen). Gal4 DNA binding domain (G4 DBD) corresponding to amino acids 1 through 147 of Gal4 protein was PCR amplified to make a fusion construct with mouse RORγt (amino acids 79 to the carboxyl terminal end) lacking its DNA binding domain. The resulting chimeric gene was subcloned into the copper inducible pMT/V5-His A vector (Invitrogen). In a similar manner, Gal4 fusion constructs were prepared with mouse RORα (amino acids 142 to end) or Drosophila DHR3 (amino acids 120 to end). Coding sequences for firefly luciferase (Promega) were PCR amplified and subcloned into pUAST vector containing Gal4 binding enhancer sequences. Renilla luciferase construct under the polIII promoter was obtained from Dr. Dasgupta's laboratory (NYU medical center). In order to generate stable cell lines, cells were co-transfected with pMT-G4 DBD-RORγt, pMT-G4 DBD-RORα, pMT-G4 DBD-DHR3, or pMT-G4 DBDVP16 and pHygro plasmids (Invitrogen) and screened for resistant colonies in the presence of hygromycin (0.3 mg/mL). […]"}, "DHR3": {"target": "T2, DHR3 (Drosophila melanogaster, UniProt P31396)", "T2 construct": "Drosophila DHR3 (amino acids 120 to end); expressed in transfected cells", "T2 sequence (P31396 120-487 limits assumed)": "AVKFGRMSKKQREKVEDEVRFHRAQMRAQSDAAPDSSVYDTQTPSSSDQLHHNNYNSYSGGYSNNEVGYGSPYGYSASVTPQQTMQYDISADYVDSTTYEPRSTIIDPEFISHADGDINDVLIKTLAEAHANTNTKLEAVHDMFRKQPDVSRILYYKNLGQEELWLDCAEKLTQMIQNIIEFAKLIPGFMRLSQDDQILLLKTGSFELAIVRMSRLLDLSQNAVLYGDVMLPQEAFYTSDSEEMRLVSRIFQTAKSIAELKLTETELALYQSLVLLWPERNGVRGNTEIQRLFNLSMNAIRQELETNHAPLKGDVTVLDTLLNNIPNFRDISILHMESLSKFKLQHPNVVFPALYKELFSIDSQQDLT", "assay": "S2 cell DHR3 luciferase reporter", "conditions": "10 μM, FIG. 1c", "text": "as §1"}, "C. elegans Daf12": {"target": "T3, C. elegans Daf12 (Caenorhabditis elegans, UniProt G5EFF5)", "T3 construct": "C. elegans Daf12 (amino acids 184 to end); expressed in transfected cells; host or cells: Drosophila S2 cells", "T3 sequence (G5EFF5 184-753 limits assumed)": "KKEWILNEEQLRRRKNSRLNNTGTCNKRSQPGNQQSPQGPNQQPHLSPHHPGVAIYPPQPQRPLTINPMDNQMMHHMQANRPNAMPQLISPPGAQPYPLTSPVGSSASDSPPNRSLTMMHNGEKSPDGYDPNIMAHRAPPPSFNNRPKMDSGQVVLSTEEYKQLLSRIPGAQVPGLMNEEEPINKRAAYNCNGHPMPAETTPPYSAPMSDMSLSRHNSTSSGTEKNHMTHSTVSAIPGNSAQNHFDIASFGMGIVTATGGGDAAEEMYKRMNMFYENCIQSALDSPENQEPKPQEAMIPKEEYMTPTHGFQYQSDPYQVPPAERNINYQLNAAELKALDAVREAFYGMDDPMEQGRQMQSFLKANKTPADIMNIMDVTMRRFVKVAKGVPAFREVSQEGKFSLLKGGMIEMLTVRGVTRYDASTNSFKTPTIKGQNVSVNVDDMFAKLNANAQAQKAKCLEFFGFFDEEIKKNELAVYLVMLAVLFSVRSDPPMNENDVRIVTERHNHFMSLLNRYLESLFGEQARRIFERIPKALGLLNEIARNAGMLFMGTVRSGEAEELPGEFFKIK", "assay": "S2 cell Daf12 reporter", "text": "The Drosophila S2 cell line was originally purchased from Invitrogen and was maintained in Schneider's Drosophila medium supplemented with 10% heat-inactivated bovine fetal calf serum and 1× antibiotic-antimycotic solution (Invitrogen). The Gal4 DNA binding domain (G4 DBD), corresponding to amino acids 1 through 147 of the Gal4 protein, was PCR amplified to make the fusion construct with murine RORγ (amino acids 79 to the carboxyl terminal end) lacking its DNA binding domain. The resulting chimeric gene was subcloned into the copper inducible pMT/V5-His A vector (Invitrogen) and into the constitutive pAc vector. Similar methods yielded fusion constructs between G4 DBD and murine RORα (amino acids 142 to end), Drosophila DHR3 (amino acids 120 to end), C. elegans Daf12 (amino acids 184 to end), and herpes simplex virus VP16 (amino acids 413 to end). Coding sequences for firefly luciferase (Promega) were PCR amplified and subcloned into the pUAST vector containing five Gal4 binding enhancer sequences. The Renilla luciferase construct under a pol III promoter and the pAc vector were obtained from R. Dasgupta (NYU School of Medicine). […]"}}, "data": [{"smiles": "C[C@H]1O[C@@H](O[C@H]2[C@@H](O)C[C@H](O[C@H]3[C@@H](O)C[C@H](O[C@H]4CC[C@@]5(C)[C@H](CC[C@@H]6[C@@H]5C[C@@H](O)[C@]5(C)[C@@H](C7=CC(=O)OC7)CC[C@]65O)C4)O[C@@H]3C)O[C@@H]2C)C[C@H](O)[C@@H]1O", "note": "[Digoxin]", "values": [{"measurement": "effect on transcriptional activity of RORα", "setting": "RORα", "value": "no effect"}, {"measurement": "effect on transcriptional activity of DHR3", "setting": "DHR3", "value": "no effect"}, {"measurement": "inhibition of C. elegans Daf12 activity", "setting": "C. elegans Daf12", "value": "did not inhibit"}]}]}
